# Experimental data from PMC10175095 (Therapeutic drug monitoring, 2023).
# What was measured:
# [1] = Pre-processed stability in human plasma; format: in vitro ADME; conditions: 2.5 h
# [2] = Reinjection stability in final extract; format: physicochemical; conditions: reinjected, 4°C, autosampler, 25.95 h
# [3] = Processed sample stability in final extract; format: physicochemical; conditions: 4°C, autosampler, 25.1 h
# [4] = Freeze-thaw stability of unprocessed plasma samples; format: in vitro ADME; conditions: human plasma, 3 freeze (-80°C)-thaw cycles
# [5] = Long-term stability of unprocessed plasma samples at −80°C; format: in vitro ADME; conditions: human plasma
# [6] = major systemic metabolite; cited from earlier work
# [7] = test system: CDK4/6; conditions: compared with abemaciclib; cited from earlier work
# [8] = RT (20–25°C), yellow light, nominal 15 ng/mL
# [9] = RT (20–25°C), yellow light, nominal 1500 ng/mL
smiles,measurement,setting,value
Cc1nc2c(F)cc(-c3nc(Nc4ccc(CN5CCNCC5)cn4)ncc3F)cc2n1C(C)C [Abemaciclib-M2],Accuracy vs fresh QCs,"[1]; 37°C, dark, nominal 15 ng/mL",95.8%
same,Accuracy vs. nominal concentration,"[1]; 37°C, dark, nominal 15 ng/mL",101%
same,Mean measured concentration,"[1]; 37°C, dark, nominal 15 ng/mL",15.1 ng/mL
same,Accuracy vs fresh QCs,"[1]; 37°C, dark, nominal 1500 ng/mL",103%
same,Accuracy vs. nominal concentration,"[1]; 37°C, dark, nominal 1500 ng/mL",103%
same,Mean measured concentration,"[1]; 37°C, dark, nominal 1500 ng/mL",1540 ng/mL
same,Accuracy vs fresh QCs,[1]; [8],96.6%
same,Accuracy vs. nominal concentration,[1]; [8],102%
same,Mean measured concentration,[1]; [8],15.3 ng/mL
same,Accuracy vs fresh QCs,[1]; [9],104%
same,Accuracy vs. nominal concentration,[1]; [9],104%
same,Mean measured concentration,[1]; [9],1557 ng/mL
same,Accuracy vs fresh QCs,[2]; nominal 15 ng/mL,103%
same,Accuracy vs. nominal concentration,[2]; nominal 15 ng/mL,113%
same,Mean measured concentration,[2]; nominal 15 ng/mL,16.9 ng/mL
same,Accuracy vs fresh QCs,[2]; nominal 150 ng/mL,96.5%
same,Accuracy vs. nominal concentration,[2]; nominal 150 ng/mL,104%
same,Mean measured concentration,[2]; nominal 150 ng/mL,155 ng/mL
same,Accuracy vs fresh QCs,[2]; nominal 1500 ng/mL,103%
same,Accuracy vs. nominal concentration,[2]; nominal 1500 ng/mL,104%
same,Mean measured concentration,[2]; nominal 1500 ng/mL,1557 ng/mL
same,Accuracy vs fresh QCs,[3]; nominal 15 ng/mL,100%
same,Accuracy vs. nominal concentration,[3]; nominal 15 ng/mL,110%
same,Mean measured concentration,[3]; nominal 15 ng/mL,16.5 ng/mL
same,Accuracy vs fresh QCs,[3]; nominal 1500 ng/mL,102%
same,Accuracy vs. nominal concentration,[3]; nominal 1500 ng/mL,102%
same,Mean measured concentration,[3]; nominal 1500 ng/mL,1537 ng/mL
same,Accuracy vs fresh QCs,[4]; nominal 15 ng/mL,98.2%
same,Accuracy vs. nominal concentration,[4]; nominal 15 ng/mL,100%
same,Mean measured concentration,[4]; nominal 15 ng/mL,15.0 ng/mL
same,Accuracy vs fresh QCs,[4]; nominal 1500 ng/mL,98.2%
same,Accuracy vs. nominal concentration,[4]; nominal 1500 ng/mL,99.6%
same,Mean measured concentration,[4]; nominal 1500 ng/mL,1493 ng/mL
same,Accuracy vs fresh QCs,"[5]; 3 months, nominal 15 ng/mL",107%
same,Accuracy vs. nominal concentration,"[5]; 3 months, nominal 15 ng/mL",97.6%
same,Mean measured concentration,"[5]; 3 months, nominal 15 ng/mL",14.6 ng/mL
same,Accuracy vs fresh QCs,"[5]; 3 months, nominal 150 ng/mL",104%
same,Accuracy vs. nominal concentration,"[5]; 3 months, nominal 150 ng/mL",100%
same,Mean measured concentration,"[5]; 3 months, nominal 150 ng/mL",150 ng/mL
same,Accuracy vs fresh QCs,"[5]; 3 months, nominal 1500 ng/mL",98.7%
same,Accuracy vs. nominal concentration,"[5]; 3 months, nominal 1500 ng/mL",100%
same,Mean measured concentration,"[5]; 3 months, nominal 1500 ng/mL",1503 ng/mL
same,Accuracy vs fresh QCs,"[5]; 7 months, nominal 15 ng/mL",102%
same,Accuracy vs. nominal concentration,"[5]; 7 months, nominal 15 ng/mL",96.9%
same,Mean measured concentration,"[5]; 7 months, nominal 15 ng/mL",14.5 ng/mL
same,Accuracy vs fresh QCs,"[5]; 7 months, nominal 150 ng/mL",92.4%
same,Accuracy vs. nominal concentration,"[5]; 7 months, nominal 150 ng/mL",102%
same,Mean measured concentration,"[5]; 7 months, nominal 150 ng/mL",154 ng/mL
same,Accuracy vs fresh QCs,"[5]; 7 months, nominal 1500 ng/mL",93.8%
same,Accuracy vs. nominal concentration,"[5]; 7 months, nominal 1500 ng/mL",93.6%
same,Mean measured concentration,"[5]; 7 months, nominal 1500 ng/mL",1403 ng/mL
same,Accuracy vs fresh QCs,"[5]; 12 months, nominal 15 ng/mL",111%
same,Accuracy vs. nominal concentration,"[5]; 12 months, nominal 15 ng/mL",101%
same,Mean measured concentration,"[5]; 12 months, nominal 15 ng/mL",15.1 ng/mL
same,Accuracy vs fresh QCs,"[5]; 12 months, nominal 150 ng/mL",95.6%
same,Accuracy vs. nominal concentration,"[5]; 12 months, nominal 150 ng/mL",110%
same,Mean measured concentration,"[5]; 12 months, nominal 150 ng/mL",166 ng/mL
same,Accuracy vs fresh QCs,"[5]; 12 months, nominal 1500 ng/mL",96.8%
same,Accuracy vs. nominal concentration,"[5]; 12 months, nominal 1500 ng/mL",104%
same,Mean measured concentration,"[5]; 12 months, nominal 1500 ng/mL",1567 ng/mL
same,Share of the total circulating analytes in plasma,[6],25%
same,Pharmacological potency vs parent drug,[7],equipotent
